1 molecule from patent US5405857A, “3-substituted 1,2,3,4,-oxatriazole-5-imine compounds, a process for the preparation thereof and a pharmaceutical preparation containing said compounds” (A/S GEA Farmaceutisk Fabrik, priority 1991, dated 1995) can be followed below.

Experiment [1] concerns polymorph nuclear leukocytes (PMNs), c-GMP. Description: Stimulation of c-GMP content in PMNs. It is filed as cell-based, human. The settings on record: 37° C., 10 minutes. An outline of the steps:
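Isolated human PMNs incubated with compound for 10 min at 37 °C, then cellular c-GMP content measured.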

The test system of a further experiment is pre-contracted trachea. Kind of experiment: Relaxation of pre-contracted isolated trachea. Details: species or system guinea pig. The settings on record: Cavia porcellus; carbamylcholine 0.3 μM, Krebs buffer, 37° C. The method, then: Compounds according to the invention were tested for their ability to relax a pre-contracted trachea. A contraction of the respiratory passages in combination with a swelling of the mucuos membrane therein presents a vital factor at asthmatic conditions. Relaxation or dilation of the contracted respiratory passages will improve the asthmatic condition.
An isolated trachea from a guinea pig is used. After preparation of a strip which has maintained the circular musculature, the organ is divided into two parts of equal size. The two tracheal strips are suspended in their respective organ bath and connected to a transducer recording the contraction and relaxation of the organ by means of a recorder. The two tracheal strips are continuously bathed in a Krebs buffer at 37° C., constantly bubbled with carbogen (95% O2 and 5% CO2). After an equilibration time of about 3 hours the organs are tested for their sensitivity (contractility) to carbamylcholin a bolus being added directly to the bath (0.3 μM). If the contraction is satisfactory, the organs are transferred to the Krebs buffer containing the same concentration of carbamylcholine. The organs are now constantly exposed to the carbamylcholine and slowly develop a permanent contraction ("asthma"). The test substances are in bolus form added directly to the organ bath. After maximum effect (relaxation) the substances are removed by washing out and the tracheal strip reverts to its permanent contraction state. […] An EC50 -value (that is the concentration relaxing the organ by 50% relative to the maximum relaxation) is calculated for each test substance by means of a linear regression analysis (log concentration (μM) as a constant ad abscissa and % relaxation as variable ad ordinate). Sodium nitroprusside (NNP) and SIN-1 are used as reference substances.

In the case of `COc1ccc(Cl)cc1-[n+]1noc([NH-])n1` [Example 20], the “c-GMP in PMNs” value in experiment [1] (1 μM) was found to be 175 fmole/10^6 cells; in experiment [1] (10 μM) it was 492 fmole/10^6 cells; in experiment [1] (100 μM), 866 fmole/10^6 cells. Also, the concentration giving a half-maximal response (EC50) (usually the concentration needed to bring the measured effect to its halfway point) in the experiment with pre-contracted trachea was determined as 2700 nM.
